A value given as a limit tells only on which side of the number the result lay.

Data set [1] has as its target Carbonic anhydrase 9 (Homo sapiens, UniProt Q16790). In words: Inhibition of human carbonic anhydrase 9 catalytic site preincubated for 15 mins by stopped flow CO2 hydration assay.
For data set [2], the target named is Carbonic anhydrase 1 (Homo sapiens, UniProt P00915).
Description: Inhibition of human carbonic anhydrase 1 preincubated for 15 mins by stopped flow CO2 hydration assay
Data set [3] has as its target Carbonic anhydrase 2 (Homo sapiens, UniProt P00918).
Description: Inhibition of human carbonic anhydrase 2 preincubated for 15 mins by stopped flow CO2 hydration assay
The subject of data set [4] is HT-29. The data set can be described thus: Antiproliferative activity against human HT-29 cells assessed as reduction in cell viability after 72 hrs by cell counter method. In kind it is cell-based. As to conditions: HT-29, 72 h.
Data set [5] can be described thus: Toxicity in nude mouse xenografted with human HT-29 cells assessed as weight loss at 25 to 50 mg/kg, ip administered qd measured after 16 days. The class given is organism-based. As to conditions: in vivo, 384 h. On the technique in general: Xenograft models place foreign cells or tissue in a host animal.
Data set [6] can be described thus: Toxicity in nude mouse xenografted with human HT-29 cells assessed as clinical toxicity at 25 to 50 mg/kg, ip administered qd measured after 16 days. As to conditions: in vivo, 384 h. The class given is organism-based.
The target of data set [7] is Carbonic anhydrase 7 (Homo sapiens, UniProt P43166). The data set can be described thus: Inhibition of human carbonic anhydrase 7 preincubated for 15 mins by stopped flow CO2 hydration assay.
Carbonic anhydrase 7, sequence (P43166 whole entry): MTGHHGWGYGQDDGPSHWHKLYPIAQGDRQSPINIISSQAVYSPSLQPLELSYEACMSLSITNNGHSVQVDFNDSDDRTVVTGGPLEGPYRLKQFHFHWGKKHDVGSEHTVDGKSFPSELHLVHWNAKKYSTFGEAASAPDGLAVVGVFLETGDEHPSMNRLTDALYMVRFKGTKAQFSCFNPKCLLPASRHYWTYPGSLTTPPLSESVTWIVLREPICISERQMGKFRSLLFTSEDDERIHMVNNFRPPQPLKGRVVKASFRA
The subject of data set [8] is HT-29. The data set can be described thus: Synergistic cytotoxicity in human HT-29 cells assessed as dose reduction index ratio in presence of CoCl2-induced hypoxic conditions measured at 90 % cell growth inhibition after 72 hrs in presence of compound-5c by cell counter method. In kind it is functional.
Data set [9] relates to HT-29. In words: Synergistic cytotoxicity in human HT-29 cells assessed as dose reduction index ratio in presence of CoCl2-induced hypoxic conditions measured at 80 % cell growth inhibition after 72 hrs in presence of compound-5c by cell counter method. In kind it is functional.
The test system of data set [10] is HT-29. The data set can be described thus: Synergistic cytotoxicity in human HT-29 cells assessed as dose reduction index ratio in presence of CoCl2-induced hypoxic conditions measured at 70 % cell growth inhibition after 72 hrs in presence of compound-5c by cell counter method. The class given is functional.

Carbonic anhydrase 1, sequence (P00915 whole entry): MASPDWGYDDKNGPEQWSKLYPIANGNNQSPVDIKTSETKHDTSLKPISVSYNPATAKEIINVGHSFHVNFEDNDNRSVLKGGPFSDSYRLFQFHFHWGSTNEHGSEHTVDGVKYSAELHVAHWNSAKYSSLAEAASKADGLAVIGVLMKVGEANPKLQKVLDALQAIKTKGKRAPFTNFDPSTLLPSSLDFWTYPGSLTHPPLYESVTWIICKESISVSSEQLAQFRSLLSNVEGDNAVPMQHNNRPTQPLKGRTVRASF

Broadly, the Ki is the dissociation constant of the complex between target and ligand, obtained from inhibition or displacement. Low values mean a stronger hold on the target, high ones a looser hold on the target. With `O=C(Nc1cccc2c1C(=O)NS2(=O)=O)c1ccc(-c2ccccc2)cc1`, the results for the Ki in data set [1], in [2] and in data set [3] were 1190 nM, over 50000 nM and 910 nM, respectively.

For `COc1ccc(C(=O)Nc2ccc3c(c2)C(=O)NS3(=O)=O)cc1`, the figures for the Ki in data set [1] and in data set [3] were 74 nM and 790 nM, respectively.

Regarding `O=C(Nc1cccc2c1C(=O)NS2(=O)=O)c1ccccc1`, the values for the Ki in data set [1], in data set [2] and in data set [3] were 223 nM, over 50000 nM and 184 nM, respectively.

As to `COc1ccc(C(=O)Nc2ccc3c(c2)S(=O)(=O)NC3=O)cc1`, the Ki in data set [1] is 205 nM; in data set [2] it was over 50000 nM; in data set [3], 6940 nM.

Take `O=C(Nc1ccc2c(c1)C(=O)NS2(=O)=O)c1cccc(Br)c1`: the Ki in data set [1] turned out to be 31.5 nM; in [3], 3930 nM.

As to `O=C(Nc1ccc2c(c1)S(=O)(=O)NC2=O)c1ccc(F)cc1`, the Ki in data set [1] is 543 nM; in data set [2], over 50000 nM; in data set [3] it was 908 nM.

With `O=C(Nc1ccc2c(c1)C(=O)NS2(=O)=O)c1ccc(-c2ccccc2)cc1`, the Ki in [1] is 231 nM; in data set [2], over 50000 nM; in [3], 82.9 nM.

On to `O=C(Nc1ccc2c(c1)S(=O)(=O)NC2=O)c1cccc(Cl)c1`, for which the inhibition constant (Ki) in data set [1] is 233 nM; in data set [2] it was over 50000 nM; in data set [3], 6020 nM.

Turning to `Cc1ccc(C(=O)Nc2ccc3c(c2)S(=O)(=O)NC3=O)cc1`, the Ki in data set [1] is 539 nM; in data set [2] it was over 50000 nM; in [3], 411 nM.

The IC50 is the midpoint of a concentration-inhibition curve. Turning to `O=C(Nc1ccc2c(c1)C(=O)NS2(=O)=O)c1cccc(Cl)c1`, the Ki worked out at 67.9 nM in data set [1] and 589 nM in [3]. Moreover, the IC50 in [4] was over 100000 nM. Further, the Activity entry in [5] and in data set [6] was “Non-Toxic” in each case.

As to `O=C(Nc1ccc2c(c1)C(=O)NS2(=O)=O)c1ccc(F)cc1`, the results for the Ki in data set [1] and in data set [3] were 27.2 nM and 6880 nM, respectively.

Regarding `O=C(Nc1cccc2c1C(=O)NS2(=O)=O)c1cccc(Br)c1`, the Ki in data set [7] was over 50000 nM; in data set [1] it was 31.2 nM; in data set [3] it was 593 nM. The IC50 in [4] was over 100000 nM.

With `O=C(Nc1ccc2c(c1)S(=O)(=O)NC2=O)c1ccccc1`, the Ki was 220 nM in data set [1], over 50000 nM in [2] and 7270 nM in data set [3].

On to `O=C(Nc1ccc2c(c1)S(=O)(=O)NC2=O)c1ccc(Cl)cc1`, for which the figures for the Ki in [1], in [2] and in [3] were 1920 nM, over 50000 nM and 4670 nM, respectively.

For `O=C(Nc1ccc2c(c1)C(=O)NS2(=O)=O)c1ccc(Cl)cc1`, the Ki in data set [1] is 86.2 nM; in [2] it was over 50000 nM; in [3], 2300 nM.

`O=C(Nc1ccc2c(c1)S(=O)(=O)NC2=O)c1cccc(Br)c1`: the results for the Ki in data set [1], in data set [2] and in data set [3] were 665 nM, over 50000 nM and 837 nM, respectively.

For `CC(=O)Nc1ccc2c(c1)C(=O)NS2(=O)=O`, the results for the Ki in data set [7], in [1] and in data set [3] were over 50000 nM, 30.4 nM and 1480 nM, respectively. The IC50 in data set [4] is over 100000 nM.

In the case of `CCc1c2c(nc3ccc(O)cc13)-c1cc3c(c(=O)n1C2)COC(=O)[C@]3(O)CC` [7-ETHYL-10-HYDROXYCAMPTOTHECIN], the Ratio in data set [8] was 7.395; in data set [9], 2.039; in data set [10], 0.866.

With `O=c1[nH]cc(F)c(=O)[nH]1` [FLUOROURACIL], the Ratio in data set [8] is recorded as 89.952; in data set [9], 15.884; in data set [10], 5.017.

Source of the values: ChEMBL document CHEMBL4425112, “1,2-Benzisothiazole Derivatives Bearing 4-, 5-, or 6-Alkyl/arylcarboxamide Moieties Inhibit Carbonic Anhydrase Isoform IX (CAIX) and Cell Proliferation under Hypoxic Conditions” (J Med Chem, 2016).
